In patent US12059428B2, “Methods of treating tumor metastasis” (TARIS Biomedical LLC, priority 2017, dated 2024):
Entries after “also recorded” stand apart in the source; their conditions may differ.

Assays:
TGF-β = assay: Circulating TGF-β in rats inoculated with NBTII bladder tumors; format: in vivo, rat; conditions: low concentration intravesical perfusion, FIG. 8
From the text: TGF-β drives Treg cell expression which in turn suppresses both local and systemic CD4 and CD8 T cell response against the bladder tumor.

[1] = system: activated CD4 and CD8 cells in the spleen; assay: Activated CD4 and CD8 cells in the spleen by flow cytometry, NBT-II tumor rats; format: in vivo, rat; conditions: vs untreated tumor rats, FIG. 11
Method: Rats were inoculated with NBT-II tumors and the number of activated CD4 and CD8 cells in the spleen was assessed by flow cytometry either in rats treated with intravesicular gemcitabine or untreated rats. […] Intravesicular gemcitabine increased the percentage of activated CD4 and CD8 cells, thus indicating activation of the immune system against the tumor.

NBTII tumor cells = assay: Bladder tumor growth after inoculation with NBTII tumor cells; format: in vivo, rat; conditions: average urine concentration 40 ug/mL
[2] = system: subcutaneous NBTII tumors; assay: Bladder cannulated rats with only subcutaneous NBTII tumors, no bladder tumor (Example 4); format: in vivo, rat; conditions: two perfusion cycles, FIG. 7
Method: To confirm the observed effects on subcutaneous tumor growth is the result of the local action of intravesical gemcitabine on bladder tumors, an additional series of experiments were completed in which bladder cannulated rats were implanted with only subcutaneous NBTII tumors. The animals were then treated with two perfusion cycles of intravesical gemcitabine as in the previous experiments. […] These findings both confirm the presence of a bladder tumor is required and the observed reductions in subcutaneous tumors are mediated immunologically.

NBTII flank tumors = assay: Gemcitabine immunogenicity study, NBTII bladder and flank tumors (Example 2); format: in vivo, rat
From the text: Gemcitabine immunogenicity was studied in immunocompetent rats with NBTII cells injected into the bladder and subcutaneous flank tissue; flank tumors were implanted either simultaneously with bladder tumors or 14 days after bladder tumor injection. Control groups received only flank tumors, N=15, or bladder and flank tumors with vehicle perfusion, N=10. […]

[3] = system: CD4+FOXP3+ and CD8+FOXP3+ regulatory T cells; assay: Splenic regulatory T cells by flow cytometry, NBT-II tumor rats; format: in vivo, rat; conditions: vs untreated tumor rats, FIG. 12
From the text: The percentage splenic of regulatory T cells was assed using flow cytometry. […] Intravesicular gemcitabine increased the percentage of activated Cn both CD4+FOXP3+ and CD8+FOXP3+ regulatory T cells, thus indicating activation of the systemic immune system against the tumor.

[4] = system: subcutaneous NBTII tumors; assay: Varying gemcitabine bladder exposure, simultaneously implanted bladder and subcutaneous NBTII tumors (Example 3); format: in vivo, rat; conditions: perfusion 45 and 90 μg/ml, nominal urine 10 and 20 μg/ml, FIG. 6
From the text: Extending the investigation described in EXAMPLE 1, additional studies of NBTII bladder and subcutaneous tumors evaluated the effect of varying gemcitabine bladder exposures with and without simultaneous bladder tumor implantation.
In one set of experiments, gemcitabine perfusion concentrations were varied to evaluate the effect of differing bladder tumor exposures on subcutaneous tumor growth rates. Bladder cannulated rats (n=10 per treatment group) with simultaneously implanted bladder and subcutaneous NBTII tumors were studied over two treatment cycles, each separated by a 7-day drug free period, as used in the EXAMPLE 1 study.
Gemcitabine perfusion concentrations of 45 μg/ml and 90 μg/ml were tested, producing nominal urine concentrations of 10 μg/ml and 20 μg/ml respectively, representing […] reductions vs the original study gemcitabine urine concentrations. Subcutaneous tumor growth was measured during the study as previously.

[5] = system: T24-TurboFP635 human derived MIBC cells; assay: Bladder tumor bioluminescence in athymic rats with T24-TurboFP635 cells injected into the bladder; format: in vivo, rat; conditions: for reduction in bladder tumor bioluminescence vs control: athymic rats, 5-day perfusion, day 5
Method: (§1) The direct effects of low dose gemcitabine were studied in athymic rats with human derived MIBC cells, T24-TurboFP635, injected into the bladder. After 3 days tumor growth, gemcitabine or vehicle was perfused into the bladder over 5 days, yielding nominal urine concentrations of 0, 20, 40, or 80 ug/ml gemcitabine, N=6 per group. Tumor bioluminescence was measured on day 5. A companion study in immunocompetent rats inoculated with syngeneic NBTII bladder tumors, provided tumors for immunocyte analysis.

[6] = prior studies in animals and humans; cited from earlier work
TNF-α = TNF-α levels in rats inoculated with NBTII bladder tumors; format: in vivo, rat; conditions: FIG. 10
From the text: (§2) IL-10 increases associated with acute treatment are known to facilitate T cell mediated antitumor effects.

[7] = Gemcitabine urine concentration during intravesicular perfusion; format: in vivo, rat; conditions: intravesicular perfusion of 180 ug/ml solution
[8] = system: tumor T regulatory cells to T effector cells; assay: Flow cytometric immunocyte analysis of residual NBTII bladder tumors; format: in vivo, rat; conditions: residual NBTII tumors from immunocompetent rats
Method: as §1

[9] = system: subcutaneous NBTII tumors; assay: Bladder and flank NBTII tumor model, subcutaneous tumor volume by caliper (Example 1); format: in vivo, rat
From the text: Standardized bladder perfusion system was modified to introduce bladder and subcutaneous tumors. The bladders were first surgically cannulated by placing a catheter into the bladder, fixed in place using a suture, the free end exteriorized between the scapulae.
The animals were allowed to heal. Bladder tumors were established by injecting tumor cell suspension directly into bladder wall. Subcutaneous tumor was established by injecting tumor cell suspension under skin abdominal flank.
The bladder and flank tumor model used in this study utilized immunocompetent Wistar rats, 7 to 8 weeks in age and weighing between 150 to 200 g. The bladders were first surgically cannulated by placing a P50 catheter into the bladder dome which was fixed in place using a purse string suture and the free end exteriorized between the scapulae. […] Per study protocol, different groups of bladder cannulated rats were next inoculated with NBTII tumor cells (Nara Bladder Tumor No. 2; ATCC® CRL1655™). This is a rat syngeneic bladder tumor cell line originally derived from tumors induced with N-butyl-N-(4-hydroxybutyl) nitrosamine. In certain treatment groups, the tumor cells were injected directly into the bladder wall as a 50 uL cell suspension of approximately 2×10^6 cells. […]
Group 4 (SCT with BT, N=10) animal bladders were cannulated on study Day 0 and on study Day 4 both the bladder and abdominal flank were inoculated with NBTII tumor cells. Gemcitabine HCl in PBS (180 ug/mL) was perfused via the cannula into the bladder beginning on study Day 6 at a constant rate of 0.3 mL per hour for 5 days and again beginning on Day 20 for an additional 5 day treatment period.
Subcutaneous tumor volumes were serially measured post inoculation every two or three days using a caliper method.

IL-10 = IL-10 levels in rats inoculated with NBTII bladder tumors; format: in vivo, rat; conditions: spleens of treated animals, FIG. 9
From the text: as §2

[10] = rats with concomitant bladder tumors

In the case of `Nc1ccn([C@@H]2O[C@H](CO)[C@@H](O)C2(F)F)c(=O)n1` [gemcitabine, 2′,2′-difluorodeoxycytidine], the “circulating TGF-β plasma concentration” value (TGF-β) is reported as “suppressed TGF-β production”, the “percentage of activated CD4 cells in the spleen” value [1] is reported as “increased” and the “percentage of activated CD8 cells in the spleen” value [1] is reported as “increased”. The “bladder tumor growth after inoculation with NBTII tumor cells” value (NBTII tumor cells) was “significantly reduce bladder tumor growth”, the “subcutaneous tumor growth in rats without bladder tumor” value [2] was “continued to grow throughout both treatment cycles” and the “flank tumor growth arrest during the 7-day drug free period” value (NBTII flank tumors; 60 ug/ml group) was “this effect was maintained”. The “flank tumor response, implantation delayed to 3 days before the second perfusion” value (NBTII flank tumors; flank tumor implanted 14 days after bladder tumor) was “no tumor growth, but immediate tumor ablation”, the “flank tumor response to the second perfusion” value (NBTII flank tumors; flank tumors implanted simultaneously with bladder tumors) was “rapid flank tumor ablation in all but one animal” and the “flank tumor growth during the first perfusion cycle” value (NBTII flank tumors; [10]) was “fully arrested”. The “flank tumor size relative to controls during the first perfusion cycle” value (NBTII flank tumors; [10]) was 50 % of controls, the “percentage of splenic CD4+FOXP3+ regulatory T cells” value [3] was “increased” and the “percentage of splenic CD8+FOXP3+ regulatory T cells” value [3] was “increased”. The “subcutaneous tumor volume at reduced urine concentrations” value [4] was “dose related reduction in subcutaneous tumor volume”, the “subcutaneous tumor volume during the second treatment cycle” value [4] was “significantly decreased to near ablation” and the “reduction in bladder tumor bioluminescence vs control” value (“reduction” for short) ([5]; nominal urine concentration 20 ug/ml) was 47.6%. The “reduction” value ([5]; nominal urine concentration 40 ug/ml) was 70.5%, the “reduction” value ([5]; nominal urine concentration 80 ug/ml) was 91.2% and the “bladder tumor growth after inoculation with T24 tumor cells” value ([5]; average urine concentration 40 ug/mL) was “significantly reduce bladder tumor growth”. For the same molecule, the “systemic drug concentrations after low concentrations of intravesical gemcitabine” value [6] was “do not produce therapeutic drug concentrations systemically”, the TNF-α level (TNF-α) was “moderately increased” and the “average gemcitabine urine concentration” value [7] was 40 µg/mL. For the same molecule, the “decrease in the proportion of tumor T regulatory cells to T effector cells” value [8] was 85.2%, the “subcutaneous tumor volume during second 5-day intravesical perfusion” value ([9]; Group 3 (SCT after BT): subcutaneous tumor implanted Day 17 after first perfusion, 180 ug/mL) was “all subcutaneous tumors were undetectable by palpation; also recorded: immediately declined in tumor volume until the tumors were no longer detectable” and the “eradication of subcutaneous tumors upon retreatment” value ([9]; Group 3 and 4 combined, two 5-day cycles of 180 ug/mL) was “complete eradication of all but one subcutaneous tumor”. For the same molecule, the “subcutaneous tumor volume after second 5-day intravesical treatment” value ([9]; Group 4 (SCT with BT), 180 ug/mL, second cycle from Day 20) was “all but one tumor was undetectable by palpation”, the “subcutaneous tumor growth over the 7-day drug free period” value ([9]; Group 4 (SCT with BT), after first 5-day perfusion of 180 ug/mL) was “failed to return to their initial growth rate” and the “subcutaneous tumor growth by the end of the first intravesical perfusion period” value ([9]; Group 4 (SCT with BT): bladder and subcutaneous tumors Day 4, 180 ug/mL perfused 0.3 mL per hour for 5 days) was “dramatically slowed or fully arrested; also recorded: continued to grow for several days prior to arresting”. For the same molecule, the IL-10 levels (IL-10) was “increased IL-10 levels”.
